The values that follow are results of earlier work, collected in paper PMC3420346 (Bioorganic & medicinal chemistry, 2012).

Each structure is given as a SMILES string.

Data set [1] has as its system thrombus formation.
For data set [2] the following is noted: compared with related 9-riboside derivatives.

Regarding `CNc1nc(I)nc2c1ncn2[C@H]1C[C@H](OP(=O)(O)O)[C@]2(COP(=O)(O)O)C[C@H]12` [Compound 1, (1′R,2′S,4′S,5′S)-4-(2-iodo-6-methylamino-purin-9-yl)-1-[(phosphato)-methyl]-2-(phosphato)-bicyclo[3.1.0]hexane], the “Reduction of thrombus formation in vivo” value in data set [1] is listed as “effective in reducing thrombus formation in vivo”. The Resistance to degradation result in data set [2] is recorded as “more resistant to degradation than related 9-riboside derivatives”.
